Values quoted from earlier work in patent US10281459B2, “Protein biosensors, cross reactive sensor arrays and methods of use thereof” (YEDA RESEARCH AND DEVELOPMENT CO. LTD., priority 2012, dated 2019).

Legend:
GSTs = details: literature
MMP isoforms = details: broad-spectrum inhibitor of MMP isoforms; literature

Row | Compound | reported values for the inhibition of GSTs (GSTs) | Ki values (MMP isoforms)
1 | C=C(CC)C(=O)c1ccc(OCC(=O)O)c(Cl)c1Cl [EA, ethacrynic acid] | low micromolar range | 
2 | CNC(=O)[C@@H](NC(=O)[C@H](CC(C)C)[C@H](O)C(=O)NO)C(C)(C)C [Marimastat, marimastat] |  | low nanomolar range
